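Test compounds were applied to cells in 96-well plates for 48 hours at 5 doses. At the GI50, growth is halved. Definition used: TGI = concentration required for complete inhibition of growth.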
Assays:
Test in all cases: inhibition of tumour cell growth, NCI panel, 48 h
786-0 renal = system: 786-0 renal
DLD-1 colon = system: DLD-1 colon
LOX IMVI melanoma = system: LOX IMVI melanoma
LXFL 529 NSCLC = system: LXFL 529 NSCLC
SF-268 CNS = system: SF-268 CNS
SF-539 CNS = system: SF-539 CNS
SK-MEL-2 melanoma = system: SK-MEL-2 melanoma
UACC-257 melanoma = system: UACC-257 melanoma
UO-31 renal = system: UO-31 renal

| Compound | TGI (786-0 renal) | TGI (DLD-1 colon) | TGI (LOX IMVI melanoma) | TGI (LXFL 529 NSCLC) | TGI (SF-268 CNS) | TGI (SF-539 CNS) | TGI (SK-MEL-2 melanoma) | TGI (UACC-257 melanoma) | TGI (UO-31 renal) | GI50 (786-0 renal) | GI50 (LXFL 529 NSCLC) | GI50 (SF-539 CNS) | GI50 (SK-MEL-2 melanoma) | GI50 (UACC-257 melanoma) |
| --- | --- | --- | --- | --- | --- | --- | --- | --- | --- | --- | --- | --- | --- | --- |
| NS(=O)(=O)c1ccc(NC(=O)c2cccc3c(=O)c4ccccc4[nH]c23)cc1 | > 100 µM | > 100 µM | > 100 µM | > 100 µM | > 100 µM | > 100 µM | > 100 µM | > 100 µM | 67.8 µM | – | – | – | – | – |
| CC(=O)OCCOCBr | > 100 µM | > 100 µM | > 100 µM | > 100 µM | > 100 µM | > 100 µM | > 100 µM | > 100 µM | > 100 µM | – | – | – | – | – |
| COc1ccc(C2C(N)=NCC2c2ccccn2)cc1 (configuration not stated) | > 100 µM | > 100 µM | > 100 µM | > 100 µM | > 100 µM | > 100 µM | > 100 µM | > 100 µM | > 100 µM | – | – | – | – | – |
| c1ccc2c(c1)N=C(c1cccc3ccccc13)CC(c1cccc3ccccc13)S2 (configuration not stated) | 13.5 µM | 16.2 µM | 11.4 µM | 11.4 µM | 20.4 µM | 14.5 µM | 33 µM | 31.8 µM | 23.6 µM | – | – | – | – | – |
| CC/C=C\C/C=C\C1CC(=O)NCCCNCCCCN1 (configuration not stated) | > 100 µM | > 100 µM | > 100 µM | > 100 µM | > 100 µM | > 100 µM | > 100 µM | > 100 µM | > 100 µM | – | – | – | – | – |
| O=C1N[C@@H](O)[C@@H]2ON=C(c3ccccc3)[C@H]12 | > 100 µM | > 100 µM | > 100 µM | > 100 µM | > 100 µM | > 100 µM | > 100 µM | > 100 µM | > 100 µM | – | – | – | – | – |
| COc1cc(/C=C/C(=N\NC(=O)c2ccccc2)c2sc(Nc3ccc(Cl)c(Cl)c3)nc2C)ccc1O | > 100 µM | > 100 µM | 44.9 µM | > 100 µM | > 100 µM | > 100 µM | 64.3 µM | > 100 µM | 77.7 µM | – | – | – | – | – |
| O=c1c2ccccc2c2c3c1cccc3c1cccc3c(=O)c4ccccc4c2c31 | > 100 µM | > 100 µM | > 100 µM | > 100 µM | > 100 µM | > 100 µM | > 100 µM | > 100 µM | > 100 µM | – | – | – | – | – |
| CC(=O)c1c(C)n([O-])c2cc(C)c(C)cc2[n+]1=O | > 100 µM | > 100 µM | > 100 µM | > 100 µM | > 100 µM | > 100 µM | > 100 µM | > 100 µM | > 100 µM | – | – | – | – | – |
| NC1=NC(=O)C(CC(=O)Nc2ccc([N+](=O)[O-])cc2[N+](=O)[O-])S1 (configuration not stated) | > 100 µM | > 100 µM | > 100 µM | > 100 µM | > 100 µM | – | > 100 µM | > 100 µM | > 100 µM | – | – | – | – | – |
| COc1ccc(/C=C/C(=O)c2sc(-n3nc(-c4ccccc4)cc3-c3ccccc3)nc2C)cc1OC | > 100 µM | > 100 µM | 96.6 µM | > 100 µM | 84.2 µM | 81.1 µM | > 100 µM | > 100 µM | > 100 µM | – | – | – | – | – |
| Clc1cc(Cl)c2c(Cl)cc(Cl)c3c2c1N=S=N3 | > 100 µM | > 100 µM | > 100 µM | > 100 µM | > 100 µM | > 100 µM | > 100 µM | > 100 µM | > 100 µM | – | – | – | – | – |
| Oc1c2c(c(O)c3ccccc13)=N[C@@H](c1ccccc1)[C@H](c1ccccc1)N=2 | > 100 µM | > 100 µM | > 100 µM | > 100 µM | > 100 µM | > 100 µM | > 100 µM | > 100 µM | > 100 µM | – | – | – | – | – |
| CC(C)(C)C1(O)Cc2ccccc2C(=O)O1 (configuration not stated) | > 100 µM | > 100 µM | > 100 µM | > 100 µM | > 100 µM | > 100 µM | > 100 µM | > 100 µM | > 100 µM | – | – | – | – | – |
| O=C(Nc1ccc(S(=O)(=O)N[C@@H](C(=O)O)c2ccccc2)cc1)c1ccc(F)cc1 | > 100 µM | > 100 µM | > 100 µM | > 100 µM | > 100 µM | > 100 µM | > 100 µM | > 100 µM | > 100 µM | – | – | – | – | – |
| CC1=Nc2c(ccc3c2C(=O)c2ccccc2C3=O)NC(c2ccncc2)C1 (configuration not stated) | > 100 µM | > 100 µM | > 100 µM | > 100 µM | – | > 100 µM | > 100 µM | > 100 µM | > 100 µM | > 100 µM | > 100 µM | > 100 µM | > 100 µM | > 100 µM |
| COc1cc(/C=C\c2ccc(O)cc2)cc(OC)c1OC | > 100 µM | > 100 µM | > 100 µM | > 100 µM | 4.63 µM | > 100 µM | > 100 µM | > 100 µM | > 36.6 µM | – | – | – | – | – |
| CCOc1cccc2nc3cccc(C(=O)NCCN(C)C)c3nc12 | > 28.7 µM | 7.66 µM | 2.11 µM | > 21.9 µM | – | 6.77 µM | 3.86 µM | 6.45 µM | > 100 µM | – | – | – | – | – |
| CC1(C)CCc2cc3c(cc2O1)OCCC3=O | > 100 µM | > 100 µM | > 100 µM | > 100 µM | > 100 µM | > 100 µM | – | > 100 µM | > 100 µM | – | – | – | – | – |

— PubChem BioAssay (NCI)
